Data from the supplement of paper PMC10307832.

What was measured:
Assay in all cases: relative viability (nuclei count vs DMSO), 5 days (fraction); higher = more cells survive
[1] = compound: NC(=O)c1ccc(N(C(N)=O)c2c(F)cccc2F)nc1-c1ccc(F)cc1F [VX-702] + CC(C)C[C@H](NC(=O)[C@H](Cc1ccccc1)NC(=O)c1cnccn1)B(O)O [Bortezomib] (partner 0.002 µM)
Method in brief: (§1)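 Lung cancer cell lines were seeded in 1536-well plates and dosed by pin tool the next day, with either a single drug or a fixed anchor-drug dose combined with five library-drug doses (not always all listed) spaced in √10 steps. Five days later, one step fixed the cells and stained their nuclei (final 0.05% Triton X-100, 1% formaldehyde, 1 ug/ml Hoechst), and nuclei were counted on 4× images. Relative viability is the nuclei count in treated wells divided by the count in vehicle wells, and each value is the median of duplicate plates.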

[2] = compound: CC(C)(C)c1nc(-c2cccc(NS(=O)(=O)c3c(F)cccc3F)c2F)c(-c2ccnc(N)n2)s1 [Dabrafenib] + Cc1nc(NC(=O)N2CCC[C@H]2C(N)=O)sc1-c1ccnc(C(C)(C)C(F)(F)F)c1 [Alpelisib] (partner 2 µM)
Method in brief: as §1

[3] = compound: CC(C)(C)c1nc(-c2cccc(NS(=O)(=O)c3c(F)cccc3F)c2F)c(-c2ccnc(N)n2)s1 [Dabrafenib] + O=C(c1cc(Cc2n[nH]c(=O)c3ccccc23)ccc1F)N1CCN(C(=O)C2CC2)CC1 [Olaparib] (partner 8 µM)
Method in brief: as §1

[4] = compound: NC(=O)c1ccc(N(C(N)=O)c2c(F)cccc2F)nc1-c1ccc(F)cc1F [VX-702] + C[C@]1(O)C[C@@H](c2nc(-c3ccc4ccc(-c5ccccc5)nc4c3)c3c(N)nccn32)C1 [Linsitinib] (partner 1 µM)
Method in brief: as §1

Row | Cell Line | relative viability ([1]; first compound 0.02 µM) | relative viability ([1]; first compound 0.2 µM) | relative viability ([1]; first compound 0.6325 µM) | relative viability ([1]; first compound 2 µM) | relative viability ([2]; first compound 0.003 µM) | relative viability ([2]; first compound 0.009487 µM) | relative viability ([2]; first compound 0.03 µM) | relative viability ([2]; first compound 0.09487 µM) | relative viability ([2]; first compound 0.3 µM) | relative viability ([3]; first compound 0.003 µM) | relative viability ([3]; first compound 0.009487 µM) | relative viability ([3]; first compound 0.03 µM) | relative viability ([3]; first compound 0.09487 µM) | relative viability ([3]; first compound 0.3 µM) | relative viability ([4]; first compound 0.02 µM) | relative viability ([4]; first compound 0.2 µM) | relative viability ([4]; first compound 0.6325 µM) | relative viability ([4]; first compound 2 µM)
1 | NCI-H1915 | 1.06 | 0.893 | 0.991 | 1.01 | 1.03 | 1.05 | 0.979 | 0.897 | 0.984 | 0.276 | 0.233 | 0.214 | 0.215 | 0.268 | 1.11 | 1.14 | 1.08 | 1.08
2 | NCI-H1975 | 0.367 | 0.281 | 0.353 | 0.391 | 0.68 | 0.687 | 0.635 | 0.624 | 0.535 | 0.723 | 0.758 | 0.706 | 0.681 | 0.718 | 1.01 | 0.998 | 0.887 | 1.17
3 | NCI-H1993 | 0.841 | 1.01 | 0.992 | 1.01 | 0.689 | 0.618 | 0.534 | 0.686 | 0.778 | 1.17 | 1.1 | 1.09 | 1.06 | 1.31 | 0.712 | 0.718 | 0.745 | 0.8
4 | NCI-H2009 | 1.29 | 1.15 | 1.22 | 1.3 | 1.1 | 1.08 | 1.05 | 0.886 | 0.934 | 0.638 | 0.626 | 0.625 | 0.439 | 0.516 | 1.33 | 1.23 | 1.21 | 1.34
5 | NCI-H2023 | 0.862 | 0.946 | 1.06 | 0.947 | 0.668 | 0.614 | 0.635 | 0.614 | 0.801 | 0.478 | 0.432 | 0.492 | 0.46 | 0.458 | 0.568 | 0.561 | 0.629 | 0.612
6 | NCI-H2085 | 1.08 | 1.06 | 1.03 | 1 | 0.949 | 1.02 | 0.93 | 0.997 | 0.954 | 0.759 | 0.769 | 0.823 | 0.71 | 0.854 | 0.911 | 0.882 | 0.903 | 1.02
7 | NCI-H2087 | 0.824 | 0.889 | 0.818 | 0.914 | 1.19 | 1.12 | 1.11 | 0.823 | 0.831 |  | 0.535 | 0.541 | 0.385 | 0.532 | 1.07 | 0.982 | 0.879 | 1.01
8 | NCI-H2126 | 1.11 | 1.06 | 1.11 | 1.25 | 0.706 | 0.78 | 0.74 | 0.796 | 0.777 | 0.906 | 0.884 | 0.871 | 0.878 | 0.946 | 0.726 | 0.697 | 0.67 | 0.634
9 | NCI-H2228 | 1.02 | 0.917 | 1.31 | 1.04 | 0.585 | 0.858 | 0.813 | 0.807 | 0.896 | 0.757 | 0.464 | 0.615 | 0.439 | 0.693 | 0.724 | 0.671 | 0.685 | 0.761
